We go through 31 compounds from US20250326732A1 (Pretzel Therapeutics, Inc., priority 2021, published 2025).

The term IC50 denotes the midpoint of a concentration-inhibition curve.

For the assay, the target named is POLRMT (Homo sapiens (Human), UniProt O00411). The experiment in a line: homogeneous TR-FRET assay of mitochondrial transcription (inhibition of POLRMT). Type of assay: biochemical. Particulars: 7.5 nM POLRMT, 15 nM TFB2M, 30 nM TFAM, 0.5 nM DNA template, 500 μM NTPs, 37° C. for 60 minutes. The protocol: The ability of some compounds of the present invention to inhibit POLRMT were determined in a homogeneous TR-FRET Assay using high-throughput screening in a 384-well plate format. […] Detection of the product is facilitated by hybridization of two DNA-oligonucleotide probes to specific and adjacent sequences within the RNA product sequence. Upon annealing of the probes, two fluorophores are coupled directly to an acceptor nucleotide probe (ATTO647, 5′), or introduced via a coupled streptavidin with a biotinylated donor nucleotide probe (Europium cryptate) that is brought into sufficient proximity to serve as a fluorescence-donor-acceptor pair. Thus, a FRET signal at 665 nm is generated upon excitation at 340 nm.
POLRMT, sequence (O00411 42-1230): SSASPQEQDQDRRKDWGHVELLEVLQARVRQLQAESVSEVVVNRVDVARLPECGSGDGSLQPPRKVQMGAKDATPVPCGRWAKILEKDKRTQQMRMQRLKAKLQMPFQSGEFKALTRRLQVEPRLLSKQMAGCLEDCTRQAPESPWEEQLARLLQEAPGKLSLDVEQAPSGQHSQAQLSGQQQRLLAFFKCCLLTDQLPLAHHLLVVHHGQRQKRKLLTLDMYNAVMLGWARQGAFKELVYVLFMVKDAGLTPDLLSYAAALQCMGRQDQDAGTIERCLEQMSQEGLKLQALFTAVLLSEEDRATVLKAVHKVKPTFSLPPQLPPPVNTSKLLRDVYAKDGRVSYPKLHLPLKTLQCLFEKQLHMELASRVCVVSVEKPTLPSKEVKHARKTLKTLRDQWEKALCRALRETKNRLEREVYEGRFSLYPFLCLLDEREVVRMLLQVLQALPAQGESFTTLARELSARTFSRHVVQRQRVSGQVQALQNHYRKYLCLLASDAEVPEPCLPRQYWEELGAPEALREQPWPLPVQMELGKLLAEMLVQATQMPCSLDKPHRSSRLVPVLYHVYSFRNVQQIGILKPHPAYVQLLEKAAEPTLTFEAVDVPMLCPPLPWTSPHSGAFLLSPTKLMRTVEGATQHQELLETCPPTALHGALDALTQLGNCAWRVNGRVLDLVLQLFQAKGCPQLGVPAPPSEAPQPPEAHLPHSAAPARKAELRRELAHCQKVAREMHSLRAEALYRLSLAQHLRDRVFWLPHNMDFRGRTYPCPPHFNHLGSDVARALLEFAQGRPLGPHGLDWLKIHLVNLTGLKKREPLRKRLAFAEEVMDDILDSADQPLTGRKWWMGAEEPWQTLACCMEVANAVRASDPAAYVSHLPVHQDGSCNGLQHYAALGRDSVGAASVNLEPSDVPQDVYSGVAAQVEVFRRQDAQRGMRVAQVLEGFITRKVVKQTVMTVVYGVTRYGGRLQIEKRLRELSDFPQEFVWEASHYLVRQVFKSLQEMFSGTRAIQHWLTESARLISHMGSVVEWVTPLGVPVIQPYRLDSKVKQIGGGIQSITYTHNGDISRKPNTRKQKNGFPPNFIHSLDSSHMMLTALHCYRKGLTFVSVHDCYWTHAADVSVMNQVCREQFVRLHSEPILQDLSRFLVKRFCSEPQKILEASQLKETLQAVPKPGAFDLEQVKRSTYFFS
The DNA template is restriction linearized proximal to the promotor 3′-end (pUC-LSP). […] No nucleotide triphosphate mix is added to negative control samples. Microplates with compounds to be tested in the assay are prepared from 10 mM compound stocks in 100% DMSO, equal amounts of DMSO without any compound are added to positive control and negative control samples.
During the incubation, a mix of the detection reagents is prepared in a buffer such that the enzymatic reaction is terminated due to chelating of Mg-ions and increased ionic strength, containing 50 mM Tris-HCl (pH 7.5), 700 mM NaCl, 20 mM EDTA, and 0.01% (w/v) Tween-20. Europium-streptavidin is pre-incubated with a 200-fold molar excess of a random sequence oligonucleotide to block unspecific binding of oligo, for two hours at ambient temperature in the dark. Afterwards, the blocked Europium-streptavidin is kept on ice until use.
At the end of the enzymatic reaction time, 5 μL detection oligo mix in the detection buffer is added, and assay plates are mixed and kept at ambient temperature for one hour, protected from light. The concentration of the Acceptor nucleotide oligo (e.g., ATTO647N-5′-[…]-3′) and Donor nucleotide oligo (e.g., bio-5′-[…](-bio)[…]-bio-3′) in each assay well is 1 nM, and 3 nM, respectively.
After incubation with oligo mix, 5 μL of pre-blocked Europium-streptavidin reagent is dispensed to each assay well, assay plates are again mixed and kept at ambient temperature for one hour, protected from light.
The generated signal is measured with BMG Pherastar microtiter plate reader with a TRF light unit, using excitation at 340 nm, an integration time of 200 μs, and a delay time of 100 μs, before detection at 620 nm and 665 nm. The ratio of donor- and acceptor-fluorescence is used as a measure of the generated transcript product (i.e. enzymatic activity).
(In general: Time-resolved FRET reads energy transfer from a long-lived donor to a nearby acceptor.)

Take `COC(=O)C1CN(C(=O)c2ccc3c(-c4ccccc4C)cc(=O)oc3c2)C1` [Example 182, methyl 1-(2-oxo-4-(o-tolyl)-2H-chromene-7-carbonyl) azetidine-3-carboxylate]: the midpoint of inhibition, the IC50, lay at 12 µM.
The figure for `Cc1ccccc1-c1cc(=O)oc2cc(CCC(=O)N3CCCCC3)ccc12` [Example 49, 7-(3-oxo-3-(piperidin-1-yl)propyl)-4-(o-tolyl)-2H-chromen-2-one] is 1 µM; for `CNc1ccc2c(-c3ccc(F)cc3Cl)cc(=O)oc2c1` [Example 25, 4-(2-chloro-4-fluorophenyl)-7-(methylamino)-2H-chromen-2-one] it is 0.4 µM.
The figure for `CNC(=O)C1CC1c1ccc2c(-c3ccccc3C)cc(=O)oc2c1` (stereo not drawn) [Example 136, chiral-N-methyl-2-(2-oxo-4-(o-tolyl)-2H-chromen-7-yl)cyclopropane-1-carboxamide] is 0.2 µM; for `Cc1ccc2c(-c3ccc(F)cc3Cl)cc(=O)oc2c1` [Example 03, 4-(2-chloro-4-fluorophenyl)-7-methyl-2H-chromen-2-one] it is 19 µM; for `Cc1ccccc1-c1cc(=O)oc2cc(CC(C)C(=O)N3CCC[C@H](C(N)=O)C3)ccc12` (single isomer, unassigned) [Example 89] it is 0.1 µM.
In turn, `Cc1ccccc1-c1cc(=O)oc2cc([C@@H]3C[C@H]3C(=O)N(C)C)ccc12` (relative stereo) [Example 241, chiral-(trans)-N,N-dimethyl-2-(2-oxo-4-(o-tolyl)-2H-chromen-7-yl)cyclopropane-1-carboxamide] came in with an IC50 of 5 µM.
For `COC[C@H]1CCN(C(=O)c2ccc3c(-c4ccccc4C)cc(=O)oc3c2)C1` [Example 123, (S)-7-(3-(methoxymethyl)pyrrolidine-1-carbonyl)-4-(o-tolyl)-2H-chromen-2-one], the IC50 is 16 µM.
Next, `Cc1ccccc1-c1cc(=O)oc2cc(NCC(=O)N3CCC[C@H](C(=O)O)C3)ccc12` [Example 79, (S)-1-((2-oxo-4-(o-tolyl)-2H-chromen-7-yl)glycyl)piperidine-3-carboxylic acid]: 2 µM.
Next, `CCOC(=O)/C(C)=C/c1ccc2c(-c3ccc(F)cc3Cl)cc(=O)oc2c1` [Example 14, ethyl (E)-3-(4-(2-chloro-4-fluorophenyl)-2-oxo-2H-chromen-7-yl)-2-methylacrylate]: 18 µM; `COC[C@H](Nc1ccc2c(-c3ccccc3C)cc(=O)oc2c1)C(=O)O` [Example 102, O-methyl-N-(2-oxo-4-(o-tolyl)-2H-chromen-7-yl) serine]: 3 µM; `CC(=O)N(C)C(C)c1ccc2c(-c3ccccc3C)cc(=O)oc2c1` (stereo not shown) [Example 77, N-methyl-N-(1-(2-oxo-4-(o-tolyl)-2H-chromen-7-yl)ethyl)acetamide]: 2 µM.
In the case of `Cc1ccccc1-c1cc(=O)oc2cc(C(=O)N3CCCCC3)ccc12` [Example 37, 7-(piperidine-1-carbonyl)-4-(o-tolyl)-2H-chromen-2-one], half-maximal inhibition (IC50) was put at 1 µM.
The figure for `Cc1ccccc1-c1cc(=O)oc2cc([C@@H]3C[C@H]3C(=O)N(C)C)ccc12` (relative stereo) [Example 236, (trans)-N,N-dimethyl-2-(2-oxo-4-(o-tolyl)-2H-chromen-7-yl)cyclopropane-1-carboxamide] is 7 µM; for `Cc1ccccc1-c1cc(=O)oc2cc(N(C)Cc3ccc(=O)[nH]c3)ccc12` [Example 209, 5-((methyl(2-oxo-4-(o-tolyl)-2H-chromen-7-yl)amino)methyl)pyridin-2 (1H)-one] it is 0.3 µM; for `CN(C)c1ccc2c(-c3ccc(F)cc3Cl)cc(=O)oc2c1` [Example 31, 4-(2-chloro-4-fluorophenyl)-7-(dimethylamino)-2H-chromen-2-one] it is 0.4 µM.
Next, `Cc1ccccc1-c1cc(=O)oc2cc(C(C)N)ccc12` (stereo not shown) [Example 91, 7-(1-aminoethyl)-4-(o-tolyl)-2H-chromen-2-one]: 20 µM; `Cc1ccccc1-c1cc(=O)oc2cc(C(C)CC(=O)N3CCC[C@H](C(=O)O)C3)ccc12` (single isomer, unassigned) [Example 81]: 1 µM; `CCOC(=O)[C@@H](C)Nc1ccc2c(-c3ccc(F)cc3Cl)cc(=O)oc2c1` [Example 26, ethyl (4-(2-chloro-4-fluorophenyl)-2-oxo-2H-chromen-7-yl)-D-alaninate]: 0.4 µM.
`CCOC(=O)CCc1ccc2c(-c3ccccc3C)cc(=O)oc2c1` [Example 54, ethyl 3-(2-oxo-4-(o-tolyl)-2H-chromen-7-yl)propanoate] had an IC50 of 0.9 µM.
The figure for `Cc1ccccc1-c1cc(=O)oc2cc(N(C)CC(=O)NCC(N)=O)ccc12` [Example 134, N-(2-amino-2-oxoethyl)-2-(methyl(2-oxo-4-(o-tolyl)-2H-chromen-7-yl)amino)acetamide] is 0.2 µM.
`COCC(Cc1ccc2c(-c3ccccc3C)cc(=O)oc2c1)C(N)=O` (single isomer, unassigned) [Example 207, 3-methoxy-2-((2-oxo-4-(o-tolyl)-2H-chromen-7-yl)methyl)propanamide] registered an IC50 of 17 µM.
The figure for `Cc1ccccc1-c1cc(=O)oc2cc(CN(C)C(=O)C3CCC(C(=O)O)CC3)ccc12` [Example 156, (1R,4R)-4-(methyl((2-oxo-4-(o-tolyl)-2H-chromen-7-yl)methyl)carbamoyl)cyclohexane-1-carboxylic acid] is 0.2 µM; for `Cc1ccccc1-c1cc(=O)oc2cc(N(C)[C@H](C)C(=O)O)ccc12` [Example 108, N-methyl-N-(2-oxo-4-(o-tolyl)-2H-chromen-7-yl)-D-alanine] it is 0.04 µM; for `CNC(=O)[C@@H]1C[C@H]1c1ccc2c(-c3ccccc3C)cc(=O)oc2c1` (relative stereo) [Example 232, (trans)-N-methyl-2-(2-oxo-4-(o-tolyl)-2H-chromen-7-yl)cyclopropane-1-carboxamide] it is 2 µM.
Next, `Cc1ccccc1-c1cc(=O)oc2cc(CC(C)C(=O)N3CCC[C@H](S(C)(=O)=O)C3)ccc12` (single isomer, unassigned) [Example 85]: 0.3 µM.
The figure for `O=c1cc(-c2ccc(F)cc2Cl)c2ccc(CO)cc2o1` [Example 13, 4-(2-chloro-4-fluorophenyl)-7-(hydroxymethyl)-2H-chromen-2-one] is 10 µM; for `Cc1cc(O[C@H](C)C(=O)N2CCC[C@H](C(=O)O)C2)c2c(-c3ccc(F)cc3)cc(=O)oc2c1` [Example 160, (S)-1-((R)-2-((4-(4-fluorophenyl)-7-methyl-2-oxo-2H-chromen-5-yl)oxy)propanoyl)piperidine-3-carboxylic acid] it is more than 100 µM.
For the compound `CN(C)C(=O)N(C)Cc1ccc2c(-c3ccc(F)cc3Cl)cc(=O)oc2c1` [Example 06, 1-((4-(2-chloro-4-fluorophenyl)-2-oxo-2H-chromen-7-yl)methyl)-1,3,3-trimethylurea], the IC50 amounted to 3 µM.
The figure for `Cc1ccccc1-c1cc(=O)oc2cc(C(=O)N(C)C)ccc12` [Example 34, N,N-dimethyl-2-oxo-4-(o-tolyl)-2H-chromene-7-carboxamide] is 2 µM; for `Cc1ccccc1-c1cc(=O)oc2cc(C#N)ccc12` [Example 43, 2-oxo-4-(o-tolyl)-2H-chromene-7-carbonitrile] it is 13 µM.
